Assay [1] deals with T1, TYK2 (JH2domain-pseudokinase) (Homo sapiens, UniProt P29597).
T1 construct: TYK2 (JH2domain-pseudokinase)-tagged T7 phage strains were prepared in an E. coli host derived from the BL21 strain; made in house; host or cells: E. coli BL21-derived host (T7 phage) or HEK-293 cells
Kind of assay: TYK2 JH2 domain binding assay (KINOMEscan). On the procedure:
TYK2 (JH2domain-pseudokinase) KINOMEscan assay. For the assay, TYK2 (JH2domain-pseudokinase)-tagged T7 phage strains were prepared in an E. coli host derived from the BL21 strain.E. coli were grown to log-phase and infected with T7 phage and incubated with shaking at 32°C until lysis. The lysates were centrifuged and filtered to remove cell debris. The remaining TYK2 (JH2domain-pseudokinase) were produced in HEK-293 cells and subsequently tagged with DNA for qPCR detection. Streptavidin-coated magnetic beads were treated with biotinylated small molecule ligands for 30 minutes at room temperature to generate affinity resins for kinase assays. The liganded beads were blocked with excess biotin and washed with blocking buffer (SeaBlock (Pierce), 1% BSA, 0.05% Tween 20, 1 mM DTT) to remove unbound ligand and to reduce non-specific binding. Binding reactions were assembled by combining TYK2 (JH2domain-pseudokinase), liganded affinity beads, and test compounds in 1x binding buffer (20% SeaBlock, 0.17x PBS, 0.05% Tween 20, 6 mM DTT). Test compounds were prepared as 111X stocks in 100% DMSO. Kds were determined using an 11-point 3-fold compound dilution series with three DMSO control points. All compounds for Kd measurements are distributed by acoustic transfer (non-contact dispensing) in 100% DMSO. The compounds were then diluted directly into the assays such that the final concentration of DMSO was 0.9%. All reactions performed in polypropylene 384-well plate. Each was a final volume of 0.02 ml. The assay plates were incubated at room temperature with shaking for 1 hour and the affinity beads were washed with wash buffer (1x PBS, 0.05% Tween 20). The beads were then re-suspended in elution buffer (1x PBS, 0.05% Tween 20, 0.5 µM non-biotinylated affinity ligand) and incubated at room temperature with shaking for 30 minutes. The kinase concentration in the eluates was measured by qPCR. […]
An 11-point 3-fold serial dilution of each test compound was prepared in 100% DMSO at 100x final test concentration and subsequently diluted to 1x in the assay (final DMSO concentration = 1%). Most Kds were determined using a compound top concentration = 30,000 nM. If the initial Kd determined was < 0.5 nM (the lowest concentration tested), the measurement was repeated with a serial dilution starting at a lower top concentration.
Curves were fitted using a non-linear least square fit with the Levenberg-Marquardt algorithm. […] TABLE 1: Kd Affinities for Tyk2 JH2 Domain Binding Assay.

Assay [2] concerns STAT1/3 through TYK2/JAK1. Briefly: IFNa induced STAT phosphorylation in HEK293 cells (SIE-bla reporter gene). In kind it is cell-based. The settings on record: Homo sapiens, HEK293; HEK293T-sie-bla cells, IFNa at EC80, 4 hours; read-out: Inhibition of IFNa induced STAT phosphorylation HEK293 cells IC50. On the procedure: Stimulation of HEK293T-sie-bla cells with interferon alpha (INFa) activates the signaling pathway of STAT1/3 through TYK2/JAK1. In this assay, measurement of the activity of the reporter gene […]-lactamase expression was used as the readout.
CellSensorTM SIE-bla HEK293T cell line were purchased from Thermo Fisher Scientific (ref. #K1649B) and cultured as specified by the provider. A number of 30.000 cells per well (40 µl) were plated in a 384-well plate (Corning ref.# 3712) and cultured overnight at 37°C with 5% CO2 in a complete Optimem media (ThermoFisher ref. #11058-021) containing 0.5% (v/v) heat inactivated dialyzed FBS (Life Technologies ref. #26400044), 10 µM non-essential aminoacids NEAA (Sigma ref. #M7145), 100 µM Sodium Pyruvate (Gibco ref. #11360-039) and 100 U/mL Penicillin (Sigma ref. #P0781). Compounds were initially dissolved in 100% DMSO. Compound curves were then prepared using a 1/5 serial dilution (10 dilutions). The dilutions were directly diluted in complete Optimem media at 40-fold their final concentration in 20% DMSO. IFNa initial solution (R&D systems ref. #11100-1) was prepared at 10-fold its EC80 in complete Optimem media. Compounds and IFNa were added simultaneously to the wells with cells and incubated during 4 hours at 37°C (the final DMSO was 0.1%). The […]-lactamase substrate (LifeTechnologies ref.#K1138) was prepared at 6-fold its final concentration as specified by the provider. Then 10 µL of the mixture was added to the wells to stop the stimulation. Plate was left in the dark over-night. Then a FRET reading was performed on an appropriate plate reader.
All experiments were analysed using an ExcelFit template and the four-parameter log equation. […] TABLE 2: IC50 Inhibitions of IFNa induced STAT phosphorylation in HEK293 cells

T1 sequence (P29597 589-875 limits assumed): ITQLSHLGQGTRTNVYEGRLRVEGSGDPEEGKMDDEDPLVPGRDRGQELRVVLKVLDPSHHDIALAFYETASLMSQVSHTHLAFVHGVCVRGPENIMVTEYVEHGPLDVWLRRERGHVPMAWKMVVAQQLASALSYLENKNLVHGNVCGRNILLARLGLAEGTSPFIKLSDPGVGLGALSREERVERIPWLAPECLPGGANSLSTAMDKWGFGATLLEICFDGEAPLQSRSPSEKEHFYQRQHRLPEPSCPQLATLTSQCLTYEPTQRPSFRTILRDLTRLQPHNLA

For orientation: Kd means a measure of binding affinity in units of concentration. The term IC50 denotes the point on the concentration scale where inhibition reaches its midpoint. For the molecule `COc1ccccc1Nc1cc(NC(=O)C2CC2)ncn1` [Example 2, N-[6-(2-methoxyanilino)pyrimidin-4-yl]cyclopropanecarboxamide], the Kd in assay [1] was greater than 10 nM. Further, the IC50 in assay [2] is greater than 1000 nM. The like results for `COc1c(C)cccc1Nc1cc(NC(=O)C2CC2)ncn1` [Example 3, N-[6-(2-methoxy-3-methyl-anilino)pyrimidin-4-yl]cyclopropanecarboxamide] were, in that order, 1 to 10 nM and greater than 1000 nM. The like results for `COc1cccc(Nc2cc(Nc3cc(C)nc(C)n3)ncn2)c1` [Example 5, N6-(2,6-dimethylpyrimidin-4-yl)-N4-(3-methoxyphenyl)pyrimidine-4,6-diamine] were, in that order, 1 to 10 nM and greater than 1000 nM. For `COc1c(F)cccc1Nc1cc(Nc2cc(C)nc(C)n2)ncn1` [Example 7, N6-(2,6-dimethylpyrimidin-4-yl)-N4-(3-fluoro-2-methoxy-phenyl) pyrimidine-4,6-diamine], in assay [1], the Kd was greater than 10 nM. In addition, the IC50 in assay [2] is greater than 1000 nM. In turn, `COc1ccc(C)nc1Nc1cc(Nc2cc(C)nc(C)n2)ncn1` [Example 8, N4-(2,6-dimethylpyrimidin-4-yl)-N6-(3-methoxy-6-methyl-2-pyridyl)pyrimidine-4,6-diamine] displayed a Kd in assay [1] greater than 10 nM. Further, the IC50 in assay [2] is greater than 1000 nM. `COc1c(C)cccc1Nc1cc(Nc2cnn(C3CCOCC3)c2)ncn1` [Example 9, N4-(2-methoxy-3-methyl-phenyl)-N6-(1-tetrahydropyran-4-ylpyrazol-4-yl)pyrimidine-4,6-diamine] showed a Kd in assay [1] greater than 10 nM. The IC50 in assay [2] was greater than 1000 nM. The like results for `Cc1cc(Nc2cc(Nc3ccccc3OC(F)(F)F)ncn2)nc(C)n1` [Example 10, N6-(2,6-dimethylpyrimidin-4-yl)-N4-[2-(trifluoromethoxy)phenyl] pyrimidine-4,6-diamine] were, in that order, greater than 10 nM and greater than 1000 nM. On to `Cc1cc(Nc2cc(Nc3ccccc3S(C)(=O)=O)ncn2)nc(C)n1` [Example 11, N6-(2,6-dimethylpyrimidin-4-yl)-N4-(2-methylsulfonylphenyl)pyrimidine-4,6-diamine], for which, in assay [1], the Kd is 0.2 to 1 nM. The IC50 in assay [2] lay within 10 to 100 nM. Turning to `COc1ccc(Nc2cc(Nc3cc(C)nc(C)n3)ncn2)c(OC)c1` [Example 17, N4-(2,4-dimethoxyphenyl)-N6-(2,6-dimethylpyrimidin-4-yl)pyrimidine-4,6-diamine], the IC50 in assay [2] is greater than 1000 nM. On to `Cc1cc(Nc2cc(Nc3cnccc3N(C)S(C)(=O)=O)ncn2)nc(C)n1` [Example 35, N-[3-[[6-[(2,6-dimethylpyrimidin-4-yl)amino]pyrimidin-4-yl]amino]pyridin-4-yl]-N-methylmethanesulfonamide], for which the Kd in assay [1] was greater than 10 nM. Turning to `COc1c(Nc2cc(Nc3cc(C)nc(C)n3)ncn2)cccc1-c1ncn(C(F)F)n1` [Example 54, N4-[3-[1-(difluoromethyl)-1,2,4-triazol-3-yl]-2-methoxy-phenyl]-N6-(2,6-dimethylpyrimidin-4-yl)pyrimidine-4,6-diamine], the IC50 in assay [2] was 100 to 1000 nM. Same read-out and setting: the same measure for `COc1c(Nc2cc(Nc3cc(C)nc(C)n3)ncn2)cccc1C1CCCCO1` (stereo not shown) [Example 56, N6-(2,6-dimethylpyrimidin-4-yl)-N4-(2-methoxy-3-tetrahydropyran-2-yl-phenyl)pyrimidine-4,6-diamine]: greater than 1000 nM; for `COc1c(Nc2cc(Nc3cc(C)nc(C)n3)ncn2)cccc1-c1ncn(CC2CCCOC2)n1` (stereo not shown) [Example 57, N4-(2,6-dimethylpyrimidin-4-yl)-N6-[2-methoxy-3-[1-(tetrahydropyran-3-ylmethyl)-1,2,4-triazol-3-yl]phenyl]pyrimidine-4,6-diamine]: 10 to 100 nM; for `COc1c(Nc2cc(Nc3cc(C)nc(C)n3)ncn2)cccc1-c1ncn(C2CC(O)C2)n1` (stereo not shown) [Example 58, 3-[3-[3-[[6-[(2,6-dimethylpyrimidin-4-yl)amino]pyrimidin-4-yl]amino]-2-methoxy-phenyl]-1,2,4-triazol-1-yl]cyclobutanol]: 100 to 1000 nM. Same read-out and setting: the same measure for `COc1c(Nc2cc(Nc3cc(C)nc(C)n3)ncn2)cccc1-c1ncn(CC2CCCO2)n1` (stereo not shown) [Example 59, N4-(2,6-dimethylpyrimidin-4-yl)-N6-[2-methoxy-3-[1-(tetrahydrofuran-2-ylmethyl)-1,2,4-triazol-3-yl]phenyl]pyrimidine-4,6-diamine]: 10 to 100 nM; for `COc1c(Nc2cc(Nc3cc(C)nc(C)n3)ncn2)cccc1-c1ncn(CC2CCOC2)n1` (stereo not shown) [Example 60, N6-(2,6-dimethylpyrimidin-4-yl)-N4-[2-methoxy-3-[1-(tetrahydrofuran-3-ylmethyl)-1,2,4-triazol-3-yl]phenyl]pyrimidine-4,6-diamine]: 10 to 100 nM; for `Cc1cc(Nc2cc(Nc3ccccc3-c3ncn(C)n3)ncn2)nc(C)n1` [Example 79, N6-(2,6-dimethylpyrimidin-4-yl)-N4-[2-(1-methyl-1,2,4-triazol-3-yl)phenyl]pyrimidine-4,6-diamine]: greater than 1000 nM. In assay [1], `COc1cc(-c2nc(C(F)(F)F)n(C)n2)ccc1Nc1cc(Nc2cc(C)nc(C)n2)ncn1` [Example 82, N6-(2,6-dimethylpyrimidin-4-yl)-N4-[2-methoxy-4-[1-methyl-5-(trifluoromethyl)-1,2,4-triazol-3-yl]phenyl]pyrimidine-4,6-diamine] came in with a Kd of 1 to 10 nM. For the molecule `[2H]C([2H])([2H])N(c1cc(-c2cnn(C)c2C)ccc1Nc1cc(Nc2cc(C)nc(C)n2)ncn1)S(C)(=O)=O` [Example 98, N-[5-(1,5-dimethylpyrazol-4-yl)-2-[[6-[(2,6-dimethylpyrimidin-4-yl)amino]pyrimidin-4-yl]amino]phenyl]-N-(trideuteriomethyl)methanesulfonamide], the IC50 in assay [2] is greater than 1000 nM. Still for that read-out and setting: in the case of `CN=S(C)(=O)c1cc(C2CC2)ccc1Nc1cc(Nc2cc(C)nc(C)n2)ncn1` (stereo not shown) [Example 118, N4-[4-cyclopropyl-2-(N,S-dimethylsulfonimidoyl)phenyl]-N6-(2,6-dimethylpyrimidin-4-yl)pyrimidine-4,6-diamine] it was less than 10 nM; in that of `Cc1cc(Nc2cc(Nc3ncc(-c4cnn(C)c4C)cc3[S+](C)[O-])ncn2)nc(C)n1` (stereo not shown) [Example 173, N4-[5-(1,5-dimethylpyrazol-4-yl)-3-methylsulfinyl-2-pyridyl]-N6-(2,6-dimethylpyrimidin-4-yl)pyrimidine-4,6-diamine], less than 10 nM. On to `COc1c(-c2ncn(C)n2)ccnc1Nc1cc(Nc2ccc(F)c(C)n2)ncn1` [Example 174, N4-(5-fluoro-6-methyl-2-pyridyl)-N6-[3-methoxy-4-(1-methyl-1,2,4-triazol-3-yl)-2-pyridyl]pyrimidine-4,6-diamine], for which, in assay [2], the IC50 lay in the range of 10 to 100 nM. As for `Cc1cc(Nc2cc(Nc3ncc(C4CCCCO4)cc3S(C)(=O)=O)ncn2)nc(C)n1` (stereo not shown) [Example 175, 6-N-(2,6-dimethylpyrimidin-4-yl)-4-N-[3-methylsulfonyl-5-(oxan-2-yl)pyridin-2-yl]pyrimidine-4,6-diamine], the IC50 in assay [2] is less than 10 nM.

Values taken from EP4206196A1, “PYRIMIDINE SUBSTITUTED DERIVATIVES AS TYK2 INHIBITORS” (Almirall S.A., priority 2021, dated 2023).
